Test results reported in PubChem BioAssay (NCI).
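Test compounds were applied to cells in 96-well plates for 48 hours at 5 doses. GI50 is the concentration that inhibits growth by half. TGI marks complete inhibition of growth.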

Experiments:
Assay in all cases: inhibition of tumour cell growth, NCI panel, 48 h
CAKI-1 renal = test system: CAKI-1 renal
OVCAR-3 ovarian = test system: OVCAR-3 ovarian
HCC-2998 colon = test system: HCC-2998 colon
IGROV1 ovarian = test system: IGROV1 ovarian
ACHN renal = test system: ACHN renal
COLO 205 colon = test system: COLO 205 colon
MDA-MB-231 breast = test system: MDA-MB-231 breast
K-562 leukemia = test system: K-562 leukemia
HCT-15 colon = test system: HCT-15 colon
A498 renal = test system: A498 renal
MALME-3M melanoma = test system: MALME-3M melanoma
OVCAR-8 ovarian = test system: OVCAR-8 ovarian
CCRF-CEM leukemia = test system: CCRF-CEM leukemia
HS 578T breast = test system: HS 578T breast
EKVX NSCLC = test system: EKVX NSCLC
A549 NSCLC = test system: A549 NSCLC
HOP-62 NSCLC = test system: HOP-62 NSCLC
TK-10 renal = test system: TK-10 renal
HT29 colon = test system: HT29 colon
SK-OV-3 ovarian = test system: SK-OV-3 ovarian
U251 CNS = test system: U251 CNS
MCF7 breast = test system: MCF7 breast
NCI-H226 lung = test system: NCI-H226 lung
NCI-H522 lung = test system: NCI-H522 lung
SF-295 CNS = test system: SF-295 CNS
MOLT-4 leukemia = test system: MOLT-4 leukemia
SF-268 CNS = test system: SF-268 CNS
SK-MEL-5 melanoma = test system: SK-MEL-5 melanoma
HL-60(TB) leukemia = test system: HL-60(TB) leukemia
LOX IMVI melanoma = test system: LOX IMVI melanoma
PC-3 prostate = test system: PC-3 prostate
UACC-257 melanoma = test system: UACC-257 melanoma
NCI-H460 lung = test system: NCI-H460 lung
MDA-MB-435 = test system: MDA-MB-435
SN12C renal = test system: SN12C renal
KM12 colon = test system: KM12 colon
OVCAR-4 ovarian = test system: OVCAR-4 ovarian
DU-145 prostate = test system: DU-145 prostate
RPMI-8226 leukemia = test system: RPMI-8226 leukemia
HCT-116 colon = test system: HCT-116 colon
SR leukemia = test system: SR leukemia
SF-539 CNS = test system: SF-539 CNS
SK-MEL-28 melanoma = test system: SK-MEL-28 melanoma
HOP-92 NSCLC = test system: HOP-92 NSCLC
UACC-62 melanoma = test system: UACC-62 melanoma
SNB-75 CNS = test system: SNB-75 CNS
NCI/ADR-RES ovarian = test system: NCI/ADR-RES ovarian
NCI-H23 lung = test system: NCI-H23 lung
786-0 renal = test system: 786-0 renal
T-47D breast = test system: T-47D breast
M14 melanoma = test system: M14 melanoma
SK-MEL-2 melanoma = test system: SK-MEL-2 melanoma
RXF 393 renal = test system: RXF 393 renal
OVCAR-5 ovarian = test system: OVCAR-5 ovarian
UO-31 renal = test system: UO-31 renal
BT-549 breast = test system: BT-549 breast
SNB-19 CNS = test system: SNB-19 CNS
SW-620 colon = test system: SW-620 colon

`O/N=C1\CCc2cc(-c3nc(C4CCNCC4)[nH]c3-c3ccncc3)ccc21` showed a GI50 (CAKI-1 renal) greater than 25 µM, a TGI (CAKI-1 renal) greater than 25 µM and a GI50 (OVCAR-3 ovarian) greater than 25 µM. It also gave a TGI (OVCAR-3 ovarian) greater than 25 µM, a GI50 (HCC-2998 colon) greater than 25 µM and a TGI (HCC-2998 colon) greater than 25 µM. It also gave a GI50 (IGROV1 ovarian) greater than 25 µM, a TGI (IGROV1 ovarian) greater than 25 µM and a GI50 (ACHN renal) greater than 25 µM. It also gave a TGI (ACHN renal) greater than 25 µM, a GI50 (COLO 205 colon) of 2.78 µM and a TGI (COLO 205 colon) greater than 25 µM. For the same compound, the GI50 (MDA-MB-231 breast) was greater than 25 µM, the TGI (MDA-MB-231 breast) was greater than 25 µM and the GI50 (K-562 leukemia) was greater than 25 µM. For the same compound, the TGI (K-562 leukemia) was greater than 25 µM, the GI50 (HCT-15 colon) was greater than 25 µM and the TGI (HCT-15 colon) was greater than 25 µM. It also gave a GI50 (A498 renal) greater than 25 µM, a TGI (A498 renal) greater than 25 µM and a GI50 (MALME-3M melanoma) of 3.02 µM. For the same compound, the TGI (MALME-3M melanoma) was 12.3 µM, the GI50 (OVCAR-8 ovarian) was greater than 25 µM and the TGI (OVCAR-8 ovarian) was greater than 25 µM. It also gave a GI50 (CCRF-CEM leukemia) greater than 25 µM, a TGI (CCRF-CEM leukemia) greater than 25 µM and a GI50 (HS 578T breast) greater than 25 µM. The TGI (HS 578T breast) was greater than 25 µM, the GI50 (EKVX NSCLC) was greater than 25 µM and the TGI (EKVX NSCLC) was greater than 25 µM. For the same compound, the GI50 (A549 NSCLC) was greater than 25 µM, the TGI (A549 NSCLC) was greater than 25 µM and the GI50 (HOP-62 NSCLC) was greater than 25 µM. The TGI (HOP-62 NSCLC) was greater than 25 µM, the GI50 (TK-10 renal) was greater than 25 µM and the TGI (TK-10 renal) was greater than 25 µM. For the same compound, the GI50 (HT29 colon) was greater than 16.4 µM, the TGI (HT29 colon) was greater than 25 µM and the GI50 (SK-OV-3 ovarian) was greater than 25 µM. The TGI (SK-OV-3 ovarian) was greater than 25 µM, the GI50 (U251 CNS) was greater than 25 µM and the TGI (U251 CNS) was greater than 25 µM. It also gave a GI50 (MCF7 breast) greater than 25 µM, a TGI (MCF7 breast) greater than 25 µM and a GI50 (NCI-H226 lung) greater than 25 µM. The TGI (NCI-H226 lung) was greater than 25 µM, the GI50 (NCI-H522 lung) was greater than 25 µM and the TGI (NCI-H522 lung) was greater than 25 µM. It also gave a GI50 (SF-295 CNS) greater than 25 µM, a TGI (SF-295 CNS) greater than 25 µM and a GI50 (MOLT-4 leukemia) greater than 25 µM. It also gave a TGI (MOLT-4 leukemia) greater than 25 µM, a GI50 (SF-268 CNS) greater than 25 µM and a TGI (SF-268 CNS) greater than 25 µM. It also gave a GI50 (SK-MEL-5 melanoma) greater than 25 µM, a TGI (SK-MEL-5 melanoma) greater than 25 µM and a GI50 (HL-60(TB) leukemia) greater than 25 µM. For the same compound, the TGI (HL-60(TB) leukemia) was greater than 25 µM, the GI50 (LOX IMVI melanoma) was greater than 25 µM and the TGI (LOX IMVI melanoma) was greater than 25 µM. The GI50 (PC-3 prostate) was greater than 25 µM, the TGI (PC-3 prostate) was greater than 25 µM and the GI50 (UACC-257 melanoma) was 5.17 µM. It also gave a TGI (UACC-257 melanoma) greater than 25 µM, a GI50 (NCI-H460 lung) greater than 25 µM and a TGI (NCI-H460 lung) greater than 25 µM. For the same compound, the GI50 (MDA-MB-435) was 12.1 µM, the TGI (MDA-MB-435) was greater than 25 µM and the GI50 (SN12C renal) was greater than 25 µM. It also gave a TGI (SN12C renal) greater than 25 µM, a GI50 (KM12 colon) greater than 25 µM and a TGI (KM12 colon) greater than 25 µM. It also gave a GI50 (OVCAR-4 ovarian) greater than 25 µM, a TGI (OVCAR-4 ovarian) greater than 25 µM and a GI50 (DU-145 prostate) greater than 25 µM. For the same compound, the TGI (DU-145 prostate) was greater than 25 µM, the GI50 (RPMI-8226 leukemia) was greater than 25 µM and the TGI (RPMI-8226 leukemia) was greater than 25 µM. For the same compound, the GI50 (HCT-116 colon) was greater than 25 µM, the TGI (HCT-116 colon) was greater than 25 µM and the GI50 (SR leukemia) was greater than 25 µM. For the same compound, the TGI (SR leukemia) was greater than 25 µM, the GI50 (SF-539 CNS) was greater than 25 µM and the TGI (SF-539 CNS) was greater than 25 µM. It also gave a GI50 (SK-MEL-28 melanoma) of 1.5 µM, a TGI (SK-MEL-28 melanoma) greater than 21.3 µM and a GI50 (HOP-92 NSCLC) greater than 25 µM. It also gave a TGI (HOP-92 NSCLC) greater than 25 µM, a GI50 (UACC-62 melanoma) of 0.24 µM and a TGI (UACC-62 melanoma) greater than 25 µM. The GI50 (SNB-75 CNS) was greater than 15.8 µM, the TGI (SNB-75 CNS) was greater than 25 µM and the GI50 (NCI/ADR-RES ovarian) was greater than 25 µM. The TGI (NCI/ADR-RES ovarian) was greater than 25 µM, the GI50 (NCI-H23 lung) was greater than 25 µM and the TGI (NCI-H23 lung) was greater than 25 µM. The GI50 (786-0 renal) was greater than 25 µM, the TGI (786-0 renal) was greater than 25 µM and the GI50 (T-47D breast) was greater than 25 µM. For the same compound, the TGI (T-47D breast) was greater than 25 µM, the GI50 (M14 melanoma) was 7.57 µM and the TGI (M14 melanoma) was greater than 25 µM. The GI50 (SK-MEL-2 melanoma) was 16 µM, the TGI (SK-MEL-2 melanoma) was greater than 25 µM and the GI50 (RXF 393 renal) was greater than 25 µM. The TGI (RXF 393 renal) was greater than 25 µM, the GI50 (OVCAR-5 ovarian) was greater than 25 µM and the TGI (OVCAR-5 ovarian) was greater than 25 µM. For the same compound, the GI50 (UO-31 renal) was greater than 25 µM, the TGI (UO-31 renal) was greater than 25 µM and the GI50 (BT-549 breast) was greater than 25 µM. The TGI (BT-549 breast) was greater than 25 µM, the GI50 (SNB-19 CNS) was greater than 25 µM and the TGI (SNB-19 CNS) was greater than 25 µM. The GI50 (SW-620 colon) was greater than 25 µM and the TGI (SW-620 colon) was greater than 25 µM.
